Key:
[1] = molecular target: T1, 3-hydroxy-3-methylglutaryl coenzyme A reductase (HMGCR) (Homo sapiens, UniProt P04035); test: Inhibition of HMGCR enzymatic activity in vitro (NADPH absorbance at 340 nm); assay type: biochemical; conditions: hydroxy acid forms
T1 construct: representing oxidation of NADPH by the catalytic subunit of HMGCR in the presence of the substrate
T1 sequence (P04035 426-888 limits assumed): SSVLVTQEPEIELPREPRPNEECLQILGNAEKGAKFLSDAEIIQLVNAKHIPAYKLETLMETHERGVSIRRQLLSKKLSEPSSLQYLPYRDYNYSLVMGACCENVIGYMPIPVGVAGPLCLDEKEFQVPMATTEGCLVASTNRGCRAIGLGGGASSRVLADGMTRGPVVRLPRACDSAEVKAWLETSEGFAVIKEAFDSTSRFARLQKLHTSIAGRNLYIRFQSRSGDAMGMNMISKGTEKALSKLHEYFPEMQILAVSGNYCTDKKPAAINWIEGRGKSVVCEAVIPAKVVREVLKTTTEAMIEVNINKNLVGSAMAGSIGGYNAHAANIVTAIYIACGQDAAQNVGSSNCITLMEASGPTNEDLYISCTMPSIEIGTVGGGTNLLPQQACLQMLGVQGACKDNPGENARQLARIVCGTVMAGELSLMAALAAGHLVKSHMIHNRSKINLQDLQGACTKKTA
From the text: The degree of inhibition of the HMGCR enzyme in vitro by NST0076 and NST0078 in the hydroxy acid form thereof was studied.
During the reaction, HMGCR uses NADPH (Nicotinamide Adenine Dinucleotide Phosphate) as reducing agent and 3-hydroxy-3-methylglutaryl coenzyme A (HMG-CoA) as substrate. Mevalonic acid is obtained as a reaction product, and it serves as substrate for the subsequent reaction to continue with cholesterol synthesis. The enzymatic reaction object of study is schematized as follows: HMG-CoA+2.NADPH+2.H^+→Mevalonic acid+2.NADP^++CoASH
This in vitro assay is based on the spectrophotometric measurement of the decrease in absorbance at 340 nm, representing oxidation of NADPH by the catalytic subunit of HMGCR in the presence of the substrate. […] Briefly, the assay is performed in a 96-well plate with reaction buffer 50 mM KH2PO4, 1 M KCl, 2 mg/ml bovine serum albumin (BSA) and 5 mM DTT, at pH=7.3, and the concentrations of the reagents in the reaction mixture are 0.2 mM HMG-CoA, 3 μU/point HMGCR and 0.2 mM NADPH. The plate is read in a spectrophotometer at 340 nm and 37° C.

transgenic ApoB100 mice = test: Hypocholesterolemic effect in endogenous (familial) hypercholesterolemia model; assay type: in vivo; conditions: 50 mg/kg i.p., 12 h after treatment, male ApoB100 mice
Protocol: The mice were inoculated i.p. with 50 mg/kg of the compounds. Control mice were inoculated with equivalent volumes of the vehicle. Blood was drawn in fasting conditions before treating the animals and 12 h after treatments. Plasma, which was subsequently frozen, was obtained in both cases. The plasma total, LDL and HDL cholesterol concentration was quantified by enzymatic and spectrophotometric methods. After determining cholesterol levels and cholesterol fraction levels (baseline levels and 12 h after treatments), the change thereof with respect to the baseline level was calculated, and the results were depicted as a percentage with respect to the control group.

β-secretase (BACE) [2] = molecular target: T2, β-secretase (BACE) (Mus musculus, UniProt P56818); test: β-secretase (BACE) enzymatic activity in the brain of mice after i.p. administration; assay type: in vivo; conditions: 50 mg/kg i.p., 24 h after administration, FVB mice, brain homogenates
T2 construct: contacting a BACE-specific, fluorogenic substrate with a brain homogenate in which the enzyme is present; from tissue; host or cells: brain (without cerebellum) of FVB mice
Protocol: During the reaction, contacting a BACE-specific, fluorogenic substrate with a brain homogenate in which the enzyme is present allows quantifying the enzyme activity by means of measuring the fluorescence emitted.
Female FVB mice 4 months of age were treated i.p. with 50 mg/kg of the compounds or with equivalent volumes of the vehicle (n=6 mice/group). After 24 h, the animals were sacrificed and the brain was extracted and frozen at −20° C., first disposing of the cerebellum. After freezing the brains for 24 h, they were homogenized by making a 1/100 dilution in 0.1 M sodium acetate at pH 4. The samples were incubated for 10 minutes under cold conditions to favor lysis and to obtain the extract after centrifuging at 10,000 g for 10 minutes. The enzymatic reaction was then carried out. […] 50 μL of a 20 μM fluorogenic BACE substrate (Mca-[…]) were added to the samples and controls, the final concentration in the well being 10 μM and the total reaction volume being 100 μL. […] The results obtained in arbitrary units were normalized by the amount of protein that was determined by the bicinchoninic acid (BCA) method.

[3] = system: neurons of the hippocampus; conditions: 3.125 mg/kg i.p. 24 h and 0.5 h before kainate 23 mg/kg, then 1 dose/day for three days
FVB/NRj mice = test: Protection against epilepsy caused by kainate (Racine scale); conditions: 3.125 mg/kg i.p. 24 h and 0.5 h before kainate 23 mg/kg
[4] = Concentrations in the brain of mice after i.p. administration (UPLC-MS); assay type: in vivo; conditions: male FVB mice, lactone forms; for AUC in the brain: 50 mg/kg i.p., 1, 2, 4 and 6 h; for Brain AUC and Cmax compared with simvastatin: 50 mg/kg i.p.
Protocol: (§1) Male FVB mice 4 months of age were treated i.p. with 50 mg/kg of the compounds (n=4-8 mice/group/time). The animals were sacrificed 1, 2, 4 and 6 h after treatment by means of injecting Eutanax, the blood and brain being extracted after perfusion with PBS. The plasma obtained from the blood and the entire brain were frozen at −20° C. until analysis. The compounds were extracted from the tissues with ethyl acetate and resuspended in ethanol for subsequent UPLC-MS quantification. Fluvastatin was used as an internal standard.

[5] = Concentrations in plasma of mice after i.p. administration (UPLC-MS); assay type: in vivo; conditions: male FVB mice, lactone forms; for Plasma levels compared with simvastatin: 50 mg/kg i.p.; for AUC: mouse, plasma, ip, 50 mg/kg i.p., 1, 2, 4 and 6 h
Protocol: as §1

reactive astroglia = test: Protection against brain inflammation (astrogliosis, GFAP immunohistochemistry) induced by kainate; assay type: in vivo, mice; conditions: 3.125 mg/kg i.p. 24 h and 0.5 h before kainate 23 mg/kg, then 1 dose/day for three days; surviving animals
Protocol: Based on the coronal sections of the brain obtained during the experiment described above, astrogliosis was analyzed by means of bright field immunohistochemistry for the glial fibrillary acidic protein (GFAP) in surviving animals.
The degree to which astrogliosis has spread (or score) was determined on a scale of intensity from 0 to 3, where zero indicates the absence of reactive astroglia and three indicates maximum reactive astroglia, for each of the groups.

β-secretase (BACE) [6] = test: β-secretase (BACE) enzymatic activity in the brain of zebra fish after i.p. administration; assay type: in vivo; conditions: 100 mg/kg i.p., 24 h after administration, zebra fish 24 months of age
Protocol: The compounds object of study were prepared at different concentrations according to the weight of the animals in 0.5% methylcellulose in physiological saline, homogeneous suspensions thereof being obtained. Female zebra fish 24 months of age were treated i.p. with 100 mg/kg of the compounds or with equivalent volumes of the vehicle (n=8 fish/group). After 24 h, the animals were sacrificed and the brain was extracted and frozen at −20° C. After freezing the brains for 24 h, they were homogenized in 500 μL of 0.1 M sodium acetate at pH 4. The samples were incubated for 10 minutes under cold conditions to favor lysis and to obtain the extract after centrifuging at 10,000 g for 10 minutes. The enzymatic reaction was then carried out in the same way as in the case mice.

T2 sequence (P56818 46-501): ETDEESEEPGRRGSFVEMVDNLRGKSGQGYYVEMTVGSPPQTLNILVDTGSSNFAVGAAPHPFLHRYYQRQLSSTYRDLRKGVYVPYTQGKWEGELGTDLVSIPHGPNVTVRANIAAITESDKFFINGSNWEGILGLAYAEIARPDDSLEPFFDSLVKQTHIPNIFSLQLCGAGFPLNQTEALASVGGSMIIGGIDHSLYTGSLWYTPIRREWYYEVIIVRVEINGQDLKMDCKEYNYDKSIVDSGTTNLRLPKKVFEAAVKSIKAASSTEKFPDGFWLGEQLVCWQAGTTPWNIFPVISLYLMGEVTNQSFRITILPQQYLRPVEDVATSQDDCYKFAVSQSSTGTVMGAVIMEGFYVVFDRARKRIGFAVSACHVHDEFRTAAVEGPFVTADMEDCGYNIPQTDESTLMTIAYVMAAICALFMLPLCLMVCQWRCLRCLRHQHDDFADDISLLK

| Structure (SMILES) | HMGCR inhibition (in words) [1] | HMGCR inhibition, times less than simvastatin [1] | IC50 ([1]; 20 min, 37° C., read-out: IC50 (concentration at which 50% of the HMGCR enzymatic activity is inhibited)) [nM] | Hypocholesterolemic effect (change in plasma total, LDL and HDL cholesterol) (transgenic ApoB100 mice) | BACE enzymatic activity in the brain of mice (β-secretase (BACE) [2]) | Percentage of animals without damage (hippocampus) [3] [%] | Levels of epilepsy (AUC of Racine scale over 120 min, with respect to Vehicle+KA group) (FVB/NRj mice) | AUC in the brain [4] [µg·h/g] | Brain AUC and Cmax compared with simvastatin [4] | Plasma levels compared with simvastatin [5] | AUC [5] [ng·h/mL] | Degree of astrogliosis induced by kainate (score 0 to 3) (reactive astroglia) | BACE enzymatic activity in the brain of zebra fish (β-secretase (BACE) [6]) |
| --- | --- | --- | --- | --- | --- | --- | --- | --- | --- | --- | --- | --- | --- |
| CCC(CC)C(=O)O[C@H]1C[C@@H](C)C=C2C=C[C@H](C)[C@H](CC[C@@H]3C[C@@H](O)C(C)C(=O)O3)[C@H]21 (stereo partly drawn) [NST0076, (1S,3R,7S,8S,8aR)-8-(2-((2R,4R)-4-hydroxy-5-methyl-6-oxo-tetrahydro-2H-pyran-2-yl)ethyl)-3,7-dimethyl-1,2,3,7,8,8a-hexahydro-naphthalen-1-yl 2-ethylbutanoate] | do not significantly inhibit the HMGCR enzyme | about 28 times | 603 ± 177 | did not show any hypocholesterolemic effect | capable of reducing BACE enzymatic activity in a statistically significant manner | 50 | greater reduction of the levels of epilepsy compared to simvastatin | 37 | AUC and Cmax values surprisingly greater than those of simvastatin | plasma levels considerably greater than simvastatin | 12000 | protected against astrogliosis induced by kainate in all the studied regions |  |
| CCC(CC)C(=O)O[C@H]1C[C@@H](C)C=C2C=C[C@H](C)[C@H](CC[C@@H]3C[C@@H](O)C(CC)C(=O)O3)[C@H]21 (stereo partly drawn) [NST0078, (1S,3R,7S,8S,8aR)-8-(2-((2R,4R)-5-ethyl-4-hydroxy-6-oxo-tetrahydro-2H-pyran-2-yl)ethyl)-3,7-dimethyl-1,2,3,7,8,8a-hexahydronaphthalen-1-yl 2-ethylbutanoate] |  | about 1,900 times |  | did not show any hypocholesterolemic effect | capable of reducing BACE enzymatic activity in a statistically significant manner | 60 | greater reduction of the levels of epilepsy compared to simvastatin | 17 | AUC and Cmax values surprisingly greater than those of simvastatin | plasma levels considerably greater than simvastatin | 17000 | protected against astrogliosis induced by kainate in all the studied regions | capable of reducing BACE enzymatic activity with respect to the control in a statistically significant manner |
| C[C@H]1C=C2C=C[C@H](C)[C@H](CC[C@@H]3C[C@@H](O)CC(=O)O3)[C@H]2[C@@H](O)C1 [monacolin J, reference compound] | HMGCR inhibitory capacity much less than that of simvastatin |  |  |  |  |  |  |  |  |  |  |  |  |
| CCC(C)(C)C(=O)O[C@H]1C[C@@H](C)C=C2C=C[C@H](C)[C@H](CC[C@@H]3C[C@@H](O)CC(=O)O3)[C@H]21 [simvastatin, reference compound] |  |  |  |  |  | 25 |  |  |  |  |  |  |  |

Source: patent US9708282B1, “Anti-inflammatory and antiepileptic neuroprotective statin compounds” (NEURON BIOPHARMA, S.A., priority 2013, dated 2017)
